Data taken from patent US11806323B2, “Topical anesthetics” (PTC Innovations, LLC, priority 2022, dated 2023).
Like-named read-outs stand apart in the source and are kept apart here.

Experiments:
Nav1.5 = target: T1, Nav1.5 (Homo sapiens, UniProt Q14524); test: Patch clamp testing, Nav1.5 ion channel inhibition (SyncroPatch 384PE); type: cell-based
T1 construct: ChanTest Corp; host or cells: CHO cells (Chinese hamster)
Experimental: Cells were cultured in Ham's F-12 medium supplemented with 10% fetal bovine serum, 100 U/mL penicillin G sodium, 100 μg/mL streptomycin sulfate, and 500 μg/mL G418 aminoglycoside antibiotic.
(§1) Each compound was analyzed at concentrations of 1000 μM, 300 μM, 100 μM, 30 μM, 10 μM, 3 μM, 1 μM, and 0.3 μM. […] All tested compound formulations contained 0.3% DMSO. Each concentration of each compound was loaded into a well of a 384-well polypropylene compound plate using an automated liquid handling system (Integra Assist Plus, Integra) and then placed in the plate well of SyncroPatch 384PE (SP384PE; Nanion Technologies, Livingston, NJ) immediately before application of the cells.

Nav1.7 = target: T2, Nav1.7 (Homo sapiens, UniProt Q15858); test: Patch clamp testing, Nav1.7 ion channel inhibition (SyncroPatch 384PE); type: cell-based
T2 construct: ChanTest Corp; host or cells: CHO cells (Chinese hamster)
Experimental: An examination of the in vitro effects of the compounds consistent with the present disclosure on ion channels Nav1.5 (a sodium voltage-gated channel alpha subunit found predominantly in cardiac muscle cells) and Nav1.7 (a sodium voltage-gated channel alpha subunit normally expressed in high levels in nociceptive pain neurons at dorsal root ganglion (DRG) and trigeminal ganglion and in sympathetic ganglion neurons) was performed using adult epithelial (ovarian) tissue CHO cells of Chinese hamsters (C. griseus) […] transfected with human ion channel cDNAs (ATCC, Manassas, VA; ChanTest Corp., Cleveland, OH). Cells were cultured in Ham's F-12 medium supplemented with 10% fetal bovine serum, 100 U/mL penicillin G sodium, 100 μg/mL streptomycin sulfate, and 500 μg/mL G418 aminoglycoside antibiotic.
as §1
Observed IC50 values of the channel current inhibition for each test article are provided in Table 8 (Nav1.5 ion channel inhibition) and Table 9 (Nav1.7 ion channel inhibition).

[1] = Inhibition of Nav1.5 Ion Channel IC50, TP1A, TP1A = Tonic Block, CHO cells transfected with human ion channel cDNA, 0.3% DMSO
[2] = Inhibition of Nav1.5 Ion Channel IC50, TP2A, TP2A = Inactivated State-Dependent Block, CHO cells transfected with human ion channel cDNA, 0.3% DMSO
[3] = Inhibition of Nav1.5 Ion Channel IC50, TP25B, TP25B = Use-Dependent Block, CHO cells transfected with human ion channel cDNA, 0.3% DMSO
[4] = TP1A = Tonic Block, CHO cells transfected with human ion channel cDNA, 0.3% DMSO, read-out: Inhibition of Nav1.7 Ion Channel IC50, TP1A
[5] = TP2A = Inactivated State-Dependent Block, CHO cells transfected with human ion channel cDNA, 0.3% DMSO, read-out: Inhibition of Nav1.7 Ion Channel IC50, TP2A
[6] = TP25B = Use-Dependent Block, CHO cells transfected with human ion channel cDNA, 0.3% DMSO, read-out: Inhibition of Nav1.7 Ion Channel IC50, TP25B
[7] = read-out: Inhibition of Nav1.7 Ion Channel IC50, TP25B, TP25B = Use-Dependent Block, CHO cells transfected with human ion channel cDNA, 0.3% DMSO

T2 sequence (Q15858 whole entry): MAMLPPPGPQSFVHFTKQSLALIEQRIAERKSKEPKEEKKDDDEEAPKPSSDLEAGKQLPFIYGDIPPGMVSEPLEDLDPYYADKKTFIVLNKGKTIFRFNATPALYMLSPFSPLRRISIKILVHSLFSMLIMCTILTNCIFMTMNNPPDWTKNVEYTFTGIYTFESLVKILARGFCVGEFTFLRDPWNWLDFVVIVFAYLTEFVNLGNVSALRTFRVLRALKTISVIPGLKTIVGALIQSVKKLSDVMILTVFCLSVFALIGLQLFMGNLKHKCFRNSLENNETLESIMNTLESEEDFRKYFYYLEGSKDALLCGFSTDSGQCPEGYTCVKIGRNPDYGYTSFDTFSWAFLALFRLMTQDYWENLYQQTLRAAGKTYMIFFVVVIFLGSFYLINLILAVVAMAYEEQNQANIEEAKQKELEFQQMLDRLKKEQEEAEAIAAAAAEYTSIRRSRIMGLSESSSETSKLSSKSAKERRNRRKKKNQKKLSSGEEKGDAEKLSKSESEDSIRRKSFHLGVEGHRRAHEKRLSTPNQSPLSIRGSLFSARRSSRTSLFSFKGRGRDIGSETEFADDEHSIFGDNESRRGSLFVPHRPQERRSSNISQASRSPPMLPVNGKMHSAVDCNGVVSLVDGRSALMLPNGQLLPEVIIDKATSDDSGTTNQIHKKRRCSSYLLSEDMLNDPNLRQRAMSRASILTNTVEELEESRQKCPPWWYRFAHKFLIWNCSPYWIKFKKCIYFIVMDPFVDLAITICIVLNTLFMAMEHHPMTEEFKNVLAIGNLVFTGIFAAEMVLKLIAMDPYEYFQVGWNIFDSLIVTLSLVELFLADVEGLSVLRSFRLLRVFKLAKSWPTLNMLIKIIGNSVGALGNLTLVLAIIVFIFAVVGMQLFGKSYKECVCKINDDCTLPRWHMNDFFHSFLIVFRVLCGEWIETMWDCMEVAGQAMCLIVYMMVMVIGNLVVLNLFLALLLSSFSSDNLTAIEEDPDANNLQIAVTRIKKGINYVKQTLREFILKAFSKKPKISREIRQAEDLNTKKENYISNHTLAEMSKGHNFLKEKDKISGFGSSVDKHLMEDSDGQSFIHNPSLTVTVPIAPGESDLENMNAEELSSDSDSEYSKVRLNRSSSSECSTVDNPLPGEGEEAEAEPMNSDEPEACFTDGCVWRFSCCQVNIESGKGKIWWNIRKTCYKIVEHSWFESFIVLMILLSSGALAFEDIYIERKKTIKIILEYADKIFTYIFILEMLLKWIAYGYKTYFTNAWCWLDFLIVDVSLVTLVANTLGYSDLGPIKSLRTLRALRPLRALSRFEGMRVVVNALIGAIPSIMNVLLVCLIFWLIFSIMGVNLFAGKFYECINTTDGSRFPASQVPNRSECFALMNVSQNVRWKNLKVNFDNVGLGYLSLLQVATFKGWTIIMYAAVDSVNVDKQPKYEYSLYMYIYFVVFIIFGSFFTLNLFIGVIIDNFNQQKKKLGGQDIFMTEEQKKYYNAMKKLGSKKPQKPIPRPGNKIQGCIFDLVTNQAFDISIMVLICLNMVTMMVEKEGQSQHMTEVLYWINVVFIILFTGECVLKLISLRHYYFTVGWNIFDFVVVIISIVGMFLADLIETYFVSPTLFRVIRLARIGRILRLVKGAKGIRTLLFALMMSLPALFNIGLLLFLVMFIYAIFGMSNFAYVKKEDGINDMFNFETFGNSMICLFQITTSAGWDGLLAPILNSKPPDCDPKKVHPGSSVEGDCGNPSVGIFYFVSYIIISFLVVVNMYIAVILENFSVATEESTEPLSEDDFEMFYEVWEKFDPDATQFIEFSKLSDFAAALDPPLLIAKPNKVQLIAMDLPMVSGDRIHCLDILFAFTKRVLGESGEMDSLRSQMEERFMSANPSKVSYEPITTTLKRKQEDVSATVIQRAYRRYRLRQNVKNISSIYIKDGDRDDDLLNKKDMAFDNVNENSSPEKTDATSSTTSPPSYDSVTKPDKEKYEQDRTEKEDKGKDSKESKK
T1 sequence (Q14524 whole entry): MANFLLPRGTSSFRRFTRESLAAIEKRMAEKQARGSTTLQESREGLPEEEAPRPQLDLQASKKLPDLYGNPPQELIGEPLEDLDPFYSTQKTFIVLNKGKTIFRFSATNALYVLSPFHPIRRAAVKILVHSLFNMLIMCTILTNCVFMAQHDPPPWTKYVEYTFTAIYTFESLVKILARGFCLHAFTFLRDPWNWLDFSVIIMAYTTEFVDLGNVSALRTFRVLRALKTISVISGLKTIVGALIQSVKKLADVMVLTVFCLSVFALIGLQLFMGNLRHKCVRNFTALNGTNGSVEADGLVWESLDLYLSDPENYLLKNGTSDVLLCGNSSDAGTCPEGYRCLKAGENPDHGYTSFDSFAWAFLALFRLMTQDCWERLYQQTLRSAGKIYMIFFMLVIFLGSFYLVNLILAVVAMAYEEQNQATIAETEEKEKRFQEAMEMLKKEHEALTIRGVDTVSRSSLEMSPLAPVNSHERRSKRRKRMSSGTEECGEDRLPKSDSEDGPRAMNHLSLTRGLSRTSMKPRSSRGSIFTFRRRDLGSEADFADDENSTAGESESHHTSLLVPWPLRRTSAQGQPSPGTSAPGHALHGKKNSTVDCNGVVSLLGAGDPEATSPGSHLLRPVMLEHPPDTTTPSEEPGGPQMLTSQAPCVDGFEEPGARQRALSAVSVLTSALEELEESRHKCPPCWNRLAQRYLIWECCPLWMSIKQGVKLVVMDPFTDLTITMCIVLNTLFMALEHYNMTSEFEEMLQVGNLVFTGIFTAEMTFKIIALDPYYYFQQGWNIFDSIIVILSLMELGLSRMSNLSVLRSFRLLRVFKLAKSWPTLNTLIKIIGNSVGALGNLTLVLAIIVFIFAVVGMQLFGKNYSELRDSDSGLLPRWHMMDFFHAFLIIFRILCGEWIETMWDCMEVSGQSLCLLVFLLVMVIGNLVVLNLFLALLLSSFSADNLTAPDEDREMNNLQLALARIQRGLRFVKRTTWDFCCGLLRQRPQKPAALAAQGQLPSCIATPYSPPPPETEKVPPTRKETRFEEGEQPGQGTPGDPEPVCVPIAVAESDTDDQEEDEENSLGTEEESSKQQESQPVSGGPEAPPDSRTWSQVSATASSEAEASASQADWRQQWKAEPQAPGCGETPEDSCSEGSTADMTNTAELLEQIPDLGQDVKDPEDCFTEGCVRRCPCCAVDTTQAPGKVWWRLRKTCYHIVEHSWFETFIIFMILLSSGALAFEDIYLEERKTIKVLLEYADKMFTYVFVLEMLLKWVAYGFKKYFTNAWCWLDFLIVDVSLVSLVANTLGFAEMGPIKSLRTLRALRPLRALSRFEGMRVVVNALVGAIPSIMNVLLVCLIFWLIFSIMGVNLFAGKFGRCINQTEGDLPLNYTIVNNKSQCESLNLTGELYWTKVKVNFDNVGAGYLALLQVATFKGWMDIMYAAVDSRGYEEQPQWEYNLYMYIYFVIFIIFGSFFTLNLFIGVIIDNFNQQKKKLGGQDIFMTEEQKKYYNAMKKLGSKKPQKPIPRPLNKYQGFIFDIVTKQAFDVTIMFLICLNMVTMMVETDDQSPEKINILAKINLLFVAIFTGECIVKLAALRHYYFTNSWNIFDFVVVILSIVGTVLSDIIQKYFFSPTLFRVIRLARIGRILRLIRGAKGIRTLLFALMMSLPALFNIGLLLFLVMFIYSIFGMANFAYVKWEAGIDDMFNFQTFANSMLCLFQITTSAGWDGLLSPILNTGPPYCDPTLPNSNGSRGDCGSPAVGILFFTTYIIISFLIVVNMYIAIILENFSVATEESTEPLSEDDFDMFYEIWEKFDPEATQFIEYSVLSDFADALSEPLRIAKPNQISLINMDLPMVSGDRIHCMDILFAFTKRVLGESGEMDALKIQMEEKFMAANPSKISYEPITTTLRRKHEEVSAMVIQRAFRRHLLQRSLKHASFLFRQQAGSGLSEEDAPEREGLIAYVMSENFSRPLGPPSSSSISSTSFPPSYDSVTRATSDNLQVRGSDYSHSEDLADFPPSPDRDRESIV

## COc1ccc(N(C)C(=O)CN(CCN(C)C)c2cccc(Cl)c2F)cc1 [Compound 2300]
Nav1.5; [1]
  IC50: 327 µM
Nav1.5; [2]
  IC50: 307 µM
Nav1.5; [3]
  IC50: 259 µM
Nav1.7; [4]
  IC50: 546 µM
Nav1.7; [5]
  IC50: 673 µM
Nav1.7; [6]
  IC50: 626 µM

## COc1ccc(N(C)C(=O)CN(CCN(C)C)c2ccccc2C)cc1 [Compound 2295]
Nav1.5
  IC50: > 1000 µM
Nav1.5; [2]
  IC50: > 1000 µM
Nav1.5; [3]
  IC50: > 1000 µM
Nav1.7
  IC50: > 1000 µM
Nav1.7; [4]
  IC50: > 1000 µM
Nav1.7; [7]
  IC50: > 1000 µM

## COc1ccc(N(C)C(=O)CN(CCN(C)C)c2cccc(Cl)c2)cc1 [Compound 2291]
Nav1.5; [1]
  IC50: 808 µM
Nav1.5; [2]
  IC50: 740 µM
Nav1.5; [3]
  IC50: 693 µM
Nav1.7; [4]
  IC50: 561 µM
Nav1.7; [5]
  IC50: 463 µM
Nav1.7; [6]
  IC50: 490 µM

## COc1ccc(N(C)C(=O)CN(CCN(C)C)c2cc(Cl)ccc2Cl)cc1 [Compound 2298]
Nav1.5; [1]
  IC50: 249 µM
Nav1.5; [2]
  IC50: 240 µM
Nav1.5; [3]
  IC50: 204 µM
Nav1.7; [4]
  IC50: 273 µM
Nav1.7; [5]
  IC50: 229 µM
Nav1.7; [6]
  IC50: 220 µM

## COc1ccc(N(C)C(=O)CN(CCN2CCCCC2)c2ccccc2)cc1 [Compound 2303]
Nav1.5; [1]
  IC50: 16.6 µM
Nav1.5; [2]
  IC50: 13.5 µM
Nav1.5; [3]
  IC50: 9.5 µM
Nav1.7; [4]
  IC50: 15 µM
Nav1.7; [5]
  IC50: 14.5 µM
Nav1.7; [6]
  IC50: 13.1 µM

## COc1ccc(N(C)C(=O)CN(CCN(C)C)c2ccc(Cl)c(Cl)c2)cc1 [Compound 2292]
Nav1.5; [1]
  IC50: 208 µM
Nav1.5; [2]
  IC50: 216 µM
Nav1.5; [3]
  IC50: 193 µM
Nav1.7; [4]
  IC50: 165 µM
Nav1.7; [5]
  IC50: 162 µM
Nav1.7; [6]
  IC50: 167 µM

## COc1ccc(N(C)C(=O)CN(CCN(C)C)c2ccccc2)cc1 [Compound 2290]
Nav1.5; [1]
  IC50: > 1000 µM
Nav1.5; [2]
  IC50: > 1000 µM
Nav1.5; [3]
  IC50: > 1000 µM
Nav1.7; [4]
  IC50: > 1000 µM
Nav1.7; [5]
  IC50: > 1000 µM
Nav1.7; [6]
  IC50: > 1000 µM

## COc1ccc(N(C)C(=O)CN(CCN(C)C)c2ccccc2OC)cc1 [Compound 2293]
Nav1.5
  IC50: > 1000 µM
Nav1.5; [2]
  IC50: > 1000 µM
Nav1.5; [3]
  IC50: > 1000 µM
Nav1.7
  IC50: > 1000 µM
Nav1.7; [4]
  IC50: > 1000 µM
Nav1.7; [7]
  IC50: > 1000 µM

## COc1ccc(N(C)C(=O)CN(CCN(C)C)c2cccc(OC(F)(F)F)c2)cc1 [Compound 2296]
Nav1.5; [1]
  IC50: 254 µM
Nav1.5; [2]
  IC50: 236 µM
Nav1.5; [3]
  IC50: 222 µM
Nav1.7; [4]
  IC50: 265 µM
Nav1.7; [5]
  IC50: 231 µM
Nav1.7; [6]
  IC50: 210 µM

## COc1ccc(N(CCN(C)C)CC(=O)N(C)c2ccc(OC)cc2)cc1 [Compound 2294]
Nav1.5; [1]
  IC50: > 1000 µM
Nav1.5; [2]
  IC50: > 1000 µM
Nav1.5; [3]
  IC50: > 1000 µM
Nav1.7; [4]
  IC50: > 1000 µM
Nav1.7; [5]
  IC50: > 1000 µM
Nav1.7; [6]
  IC50: > 1000 µM

## CCN(CC)CC(=O)Nc1c(C)cccc1C [Lidocaine, reference compound]
Nav1.7; [4]
  IC50: 408 µM
Nav1.7; [5]
  IC50: 23.7 µM
Nav1.7; [6]
  IC50: 113 µM

## COc1ccc(N(C)C(=O)CN(CCN2CCN(C)CC2)c2ccccc2)cc1 [Compound 2304]
Nav1.5; [1]
  IC50: > 1000 µM
Nav1.5; [2]
  IC50: 880 µM
Nav1.5; [3]
  IC50: 670 µM
Nav1.7; [4]
  IC50: > 1000 µM
Nav1.7; [5]
  IC50: > 1000 µM
Nav1.7; [6]
  IC50: > 1000 µM

## COc1ccc(N(C)C(=O)CN(CCN(C)C)c2ccc(F)c(Cl)c2)cc1 [Compound 2299]
Nav1.5; [1]
  IC50: 515 µM
Nav1.5; [2]
  IC50: 449 µM
Nav1.5; [3]
  IC50: 505 µM
Nav1.7; [4]
  IC50: 393 µM
Nav1.7; [5]
  IC50: 315 µM
Nav1.7; [6]
  IC50: 334 µM

## COc1ccc(N(C)C(=O)CN(CCN(C)C)c2ccccc2C(F)(F)F)cc1 [Compound 2301]
Nav1.5; [1]
  IC50: 265 µM
Nav1.5; [2]
  IC50: 243 µM
Nav1.5; [3]
  IC50: 154 µM
Nav1.7; [4]
  IC50: 312 µM
Nav1.7; [5]
  IC50: 275 µM
Nav1.7; [6]
  IC50: 235 µM

## COc1ccc(N(C)C(=O)CN(CCN)c2ccccc2)cc1 [Compound 2302]
Nav1.5; [1]
  IC50: 124 µM
Nav1.5; [2]
  IC50: 96.8 µM
Nav1.5; [3]
  IC50: 75.9 µM
Nav1.7; [4]
  IC50: 70.2 µM
Nav1.7; [5]
  IC50: 77.9 µM
Nav1.7; [6]
  IC50: 55.4 µM

## COc1ccc(N(C)C(=O)CN(CCN(C)C)c2ccc(Cl)c(C(F)(F)F)c2)cc1 [Compound 2297]
Nav1.5; [1]
  IC50: 95.1 µM
Nav1.5; [2]
  IC50: 91.2 µM
Nav1.5; [3]
  IC50: 72.7 µM
Nav1.7; [4]
  IC50: 74.7 µM
Nav1.7; [5]
  IC50: 66.2 µM
Nav1.7; [6]
  IC50: 54.4 µM
